“And” between values parts separate entries of the source, which are not always exact repeats. Equal values may be shown once. Read-outs that look alike come from different tables or passages of the source.
How the values were obtained:
[1] = tested on: Sprague Dawley rats; details: for Liver Necrosis / Score (histopathology liver necrosis severity score): rat, intraperitoneal; for Liver Necrosis: 72 hours after treatment; for Score (histopathology liver necrosis severity score): 72 hours, 1 = not remarkable, 2 and higher increasing severity
Method in brief: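 Toxicity calls (necrosis present or absent at 72 h) and histopathology scores were correlated with tissue gene expression from Crl:CD Sprague Dawley rats. Animals, usually 3 treated with compound by i.p. route and 3 given vehicle, were killed at 6, 24 or 72 h and tissues frozen immediately in liquid nitrogen.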

[2] = tested on: toxicologically relevant rat genes (rat CT array); details: 24 h

SMILES: ClC(Cl)(Cl)Cl [carbon tetrachloride]
- Liver Toxicity Necrosis Classification ([1]; 72 h, dose 250): yes
- Liver Toxicity Necrosis Classification ([1]; 72 h, dose 1000): yes
- Liver Toxicity Necrosis Classification ([1]; compound-dose group at 72 h, CCL4 1000, DMN 20, LPS 8): yes
- Liver Toxicity Necrosis Classification ([1]; compound-dose group at 72 h, dose 250): yes
- Liver Toxicity Necrosis Classification ([1]; compound-dose group at 72 h, dose 1000): yes
- Liver Toxicity Necrosis Classification ([1]; compound-dosegroup at 72 h, dose 250): yes
- Liver Toxicity Necrosis Classification ([1]; compound-dosegroup at 72 h, dose 1000): yes
- Liver Necrosis ([1]; dose 0.25 ml/kg): Yes
- Score (histopathology liver necrosis severity score) ([1]; dose 0.25 ml/kg): 3
- Liver Necrosis ([1]; dose 1 ml/kg): Yes
- Score (histopathology liver necrosis severity score) ([1]; dose 1 ml/kg): 6
- 14-3-3 zeta expression (treatment/control) ([2]; dose 250, listed as CCL4): 1.66 and 1.924 and 1.756
- 17-beta hydroxysteroid dehydrogenase, type 2 expression (treatment/control) ([2]; dose 250, listed as CCL4): 1.054 and 0.5508 and 0.756
- Cathepsin L, sequence 2 expression (treatment/control) ([2]; dose 250, listed as CCL4): 1.932 and 2.846 and 1.646
- Dynamin-1 (D100) expression (treatment/control) ([2]; dose 250, listed as CCL4): 0.7967 and 0.581 and 0.7391
- Gadd45 expression (treatment/control) ([2]; dose 250, listed as CCL4): 2.248 and 2.519 and 1.891
- Gamma-actin, cytoplasmic expression (treatment/control) ([2]; dose 250, listed as CCL4): 1.21 and 1.729 and 1.683
- Insulin-like growth factor binding protein 1 expression (treatment/control) ([2]; dose 250, listed as CCL4): 1.423 and 1.69 and 1.605
- L-gulono-gamma-lactone oxidase expression (treatment/control) ([2]; dose 250, listed as CCL4): 0.5457 and 0.345 and 0.5416
- Matrin F/G expression (treatment/control) ([2]; dose 250, listed as CCL4): 0.8257 and 0.6948 and 0.7947
- Ornithine decarboxylase expression (treatment/control) ([2]; dose 250, listed as CCL4): 1.229 and 1.514 and 1.453
- PAR interacting protein expression (treatment/control) ([2]; dose 250, listed as CCL4): 1.251 and 1.611 and 1.178
- Phase-1 RCT-33 expression (treatment/control) ([2]; dose 250, listed as CCL4): 0.7
- Phase-1 RCT-36 expression (treatment/control) ([2]; dose 250, listed as CCL4): 0.9183 and 0.9601
- Phase-1 RCT-38 expression (treatment/control) ([2]; dose 250, listed as CCL4): 0.6811 and 0.8069
- Phase-1 RCT-39 expression (treatment/control) ([2]; dose 250, listed as CCL4): 1.553
- Phase-1 RCT-40 expression (treatment/control) ([2]; dose 250, listed as CCL4): 0.8329
- Phase-1 RCT-48 expression (treatment/control) ([2]; dose 250, listed as CCL4): 0.8905
- Phase-1 RCT-49 expression (treatment/control) ([2]; dose 250, listed as CCL4): 1.595 and 1.935 and 1.969
- Phase-1 RCT-50 expression (treatment/control) ([2]; dose 250, listed as CCL4): 1.199 and 1.292
- Phase-1 RCT-68 expression (treatment/control) ([2]; dose 250, listed as CCL4): 1.615
- Phase-1 RCT-78 expression (treatment/control) ([2]; dose 250, listed as CCL4): 0.6214
- Phase-1 RCT-83 expression (treatment/control) ([2]; dose 250, listed as CCL4): 0.8265 and 0.5965 and 0.5296
- Phase-1 RCT-89 expression (treatment/control) ([2]; dose 250, listed as CCL4): 0.7738 and 0.5787 and 0.6881
- Phase-1 RCT-92 expression (treatment/control) ([2]; dose 250, listed as CCL4): 0.6412 and 0.598 and 0.6063
- Phase-1 RCT-128 expression (treatment/control) ([2]; dose 250, listed as CCL4): 0.7659 and 0.5352 and 0.6882
- Phase-1 RCT-144 expression (treatment/control) ([2]; dose 250, listed as CCL4): 1.636 and 2.462 and 1.54
- Phase-1 RCT-145 expression (treatment/control) ([2]; dose 250, listed as CCL4): 1.894
- Phase-1 RCT-180 expression (treatment/control) ([2]; dose 250, listed as CCL4): 1.103
- Phase-1 RCT-182 expression (treatment/control) ([2]; dose 250, listed as CCL4): 0.5663 and 0.6692
- Phase-1 RCT-213 expression (treatment/control) ([2]; dose 250, listed as CCL4): 1.658 and 1.455
- Phase-1 RCT-256 expression (treatment/control) ([2]; dose 250, listed as CCL4): 0.6795 and 0.8008
- Phase-1 RCT-264 expression (treatment/control) ([2]; dose 250, listed as CCL4): 0.5556 and 0.3693 and 0.5559
- Phase-1 RCT-288 expression (treatment/control) ([2]; dose 250, listed as CCL4): 0.6979 and 0.5773 and 0.6386
- Phase-1 RCT-291 expression (treatment/control) ([2]; dose 250, listed as CCL4): 0.7629 and 0.7701
- Phase-1 RCT-295 expression (treatment/control) ([2]; dose 250, listed as CCL4): 1.942 and 1.579
- Ribosomal protein S17 expression (treatment/control) ([2]; dose 250, listed as CCL4): 1.826 and 2.664 and 2.129
- Senescence marker protein-30 expression (treatment/control) ([2]; dose 250, listed as CCL4): 0.7864 and 0.5048 and 0.8299
- Zinc finger protein expression (treatment/control) ([2]; dose 250, listed as CCL4): 1.078 and 1.318 and 1.451
- 14-3-3 zeta expression (treatment/control) ([2]; dose 1000): 2.165
- 17-beta hydroxysteroid dehydrogenase, type 2 expression (treatment/control) ([2]; dose 1000): 0.5477
- Cathepsin L, sequence 2 expression (treatment/control) ([2]; dose 1000): 4.767
- Dynamin-1 (D100) expression (treatment/control) ([2]; dose 1000): 0.4373
- Gadd45 expression (treatment/control) ([2]; dose 1000): 2.03
- Gamma-actin, cytoplasmic expression (treatment/control) ([2]; dose 1000): 2.857
- Insulin-like growth factor binding protein 1 expression (treatment/control) ([2]; dose 1000): 2.908
- L-gulono-gamma-lactone oxidase expression (treatment/control) ([2]; dose 1000): 0.2874
- Matrin F/G expression (treatment/control) ([2]; dose 1000): 0.5748
- Ornithine decarboxylase expression (treatment/control) ([2]; dose 1000): 2.004
- PAR interacting protein expression (treatment/control) ([2]; dose 1000): 1.736
- Phase-1 RCT-33 expression (treatment/control) ([2]; dose 1000): 0.4824
- Phase-1 RCT-36 expression (treatment/control) ([2]; dose 1000): 0.6382
- Phase-1 RCT-38 expression (treatment/control) ([2]; dose 1000): 0.5871
- Phase-1 RCT-39 expression (treatment/control) ([2]; dose 1000): 1.821
- Phase-1 RCT-40 expression (treatment/control) ([2]; dose 1000): 0.7596
- Phase-1 RCT-48 expression (treatment/control) ([2]; dose 1000): 0.9803
- Phase-1 RCT-49 expression (treatment/control) ([2]; dose 1000): 2.488
- Phase-1 RCT-50 expression (treatment/control) ([2]; dose 1000): 1.792
- Phase-1 RCT-68 expression (treatment/control) ([2]; dose 1000): 1.656
- Phase-1 RCT-78 expression (treatment/control) ([2]; dose 1000): 0.5578
- Phase-1 RCT-83 expression (treatment/control) ([2]; dose 1000): 0.3247
- Phase-1 RCT-89 expression (treatment/control) ([2]; dose 1000): 0.4606
- Phase-1 RCT-92 expression (treatment/control) ([2]; dose 1000): 0.3009
- Phase-1 RCT-128 expression (treatment/control) ([2]; dose 1000): 0.3095
- Phase-1 RCT-144 expression (treatment/control) ([2]; dose 1000): 2.627
- Phase-1 RCT-145 expression (treatment/control) ([2]; dose 1000): 1.753
- Phase-1 RCT-180 expression (treatment/control) ([2]; dose 1000): 1.291
- Phase-1 RCT-182 expression (treatment/control) ([2]; dose 1000): 0.3598
- Phase-1 RCT-207 expression (treatment/control) ([2]; dose 1000): 2.086
- Phase-1 RCT-213 expression (treatment/control) ([2]; dose 1000): 1.988
- Phase-1 RCT-256 expression (treatment/control) ([2]; dose 1000): 0.6382
- Phase-1 RCT-264 expression (treatment/control) ([2]; dose 1000): 0.2087
- Phase-1 RCT-288 expression (treatment/control) ([2]; dose 1000): 0.4221
- Phase-1 RCT-291 expression (treatment/control) ([2]; dose 1000): 0.5561
- Phase-1 RCT-295 expression (treatment/control) ([2]; dose 1000): 2.11
- Phase-1 RCT-296 expression (treatment/control) ([2]; dose 1000): 0.2278
- Ribosomal protein S17 expression (treatment/control) ([2]; dose 1000): 3.461
- Senescence marker protein-30 expression (treatment/control) ([2]; dose 1000): 0.2057
- Zinc finger protein expression (treatment/control) ([2]; dose 1000): 1.697
